We go through four compounds from US6586419B1, “Phototherapeutic inactivation of ocular viruses” (PDT Systems, Inc., priority 1997, dated 2003).

Several values for one entry are separate records, joined by “and”; a condition that tells them apart may be missing. Equal entries are not always repeated.

For data set [1] the following is noted: daily systemic intravenous administration; cited from earlier work.
Data set [2] has as its system cytomegalovirus (CMV) retinitis. The note with it: AIDS patients with CMV retinitis on anti-HIV and anti-CMV therapy; cited from earlier work.
The subject of data set [3] is cell associated CMV. The experiment in a line: Inactivation of cell-associated CMV by SnET2 and light (viral infectivity/titer). The data set is classed as cell-based, cytomegalovirus. Particulars: for viral infectivity (viral titer): LIGHT (52 mW/cm^2, 1.56 J/cm^2). The procedure:
To inactivate virus from a frozen viral stock with SnET2 and light doses, the following procedure was employed. Following light treatment, undiluted virus and drug/virus mixture were diluted 10-fold up to 1:10^6. All dilutions were used to infect sub-confluent, heat-shocked cultures of a cell line plated in tissue cultures of 24 well plate in triplicates. The infected cultures were treated with antibody against the major viral […] protein. An alkaline phosphatase labeled antibody to mouse IgG was then added followed by the alkaline phosphatase substrate. This produced a colored reaction which can be monitored microscopically in positive wells. The infected cells were characterized by a dark purple coloration in the nucleus. Viral titer or viral infectivity was determined by the last viral concentration that gave at least one infected cell per well.

Data set [4] concerns cell-free Herpes simplex virus (HSV). Nature of the data set: Inactivation of cell-free HSV by SnET2 and 660 nm light (viral infectivity/titer). The data set is classed as cell-based. As for the experimental part: The infectivity of cell-free HSV exposed to SnET2 doses ranging from 10 μg/mL to 0.1 μg/mL and 660 nm light doses of 1.56 J/cm^2 are shown in Table 1.
The infectivity of cell-free HSV exposed to 0.1 μg/mL SnET2 and light doses ranging from 1.56 J/cm^2 to 25 J/cm^2 are shown below in FIG. 2.
To inactivate virus from a frozen viral stock with SnET2 and light doses, the following procedure was employed. Following light treatment, undiluted virus and drug/virus mixture were diluted 10-fold up to 1:10^6. All dilutions were used to infect sub-confluent, heat-shocked cultures of a cell line plated in tissue cultures of 24 well plate in triplicates. The infected cultures were treated with antibody against the major viral capside protein. An alkaline phosphatase labeled antibody to mouse IgG was then added followed by the alkaline phosphatase substrate. This produced a colored reaction which can be monitored microscopically in positive wells. The infected cells were characterized by a dark purple coloration in the nucleus. Viral titer or viral infectivity was determined by the last viral concentration that gave at least one infected cell per well.

Data set [5] has as its system cell-associated HSV. Nature of the data set: Inactivation of cell-associated HSV by SnET2 and light (viral infectivity/titer). The note with it: for viral infectivity (viral titer): LIGHT (52 mW/cm^2, 1.56 J/cm^2). The data set is classed as cell-based, Herpes simplex virus.

With `O=C(O)P(=O)(O)O` [foscarnet], the systemic toxicity entry in data set [1] is on record as “causing renal toxicity”. Further, the median survival in data set [2] is 12.6 months.
With `Nc1nc(O)c2ncn(COC(CO)CO)c2n1` [ganciclovir], the systemic toxicity entry in data set [1] is reported as “suppressing the bone marrow”. Besides, the median survival in data set [2] is 8.5 months.
Regarding `Nc1nc2c(ncn2COCCO)c(=O)[nH]1` [anywhere, acyclovir], in data set [1], the systemic toxicity result is “causing renal toxicity”.
For `CCOC(=O)C1=Cc2c3nc(cc4nc(cc5[n-]c(cc6[n-]c2c(C)c6CC)c(C)c5CC)C(C)=C4CC)[C@@H](C)[C@]13CC.[Cl-].[Cl-].[Sn]` (racemic) [SnET2, tin ethyl etiopurpurin], the “viral infectivity (viral titer)” value in data set [3] (1 μg/mL, CMV 1:2) was >10^3; in data set [3] (1 μg/mL, CMV 1:10, two values given), < 10^2 and 10^4; in data set [3] (5 μg/mL, CMV 1:2) it was >10^3; in data set [3] (5 μg/mL, CMV 1:10, two values given), < 10^2 and 10^3; in data set [4] (0.1 μg/mL, 660 nm LIGHT (26 mW/cm^2, 1.56 J/cm^2)), 10^3; in data set [4] (0.1 μg/mL, DARK) it was 10^6. Also, the “viral infectivity (viral titer)” value is <10^1 in data set [4] (1 μg/mL, 660 nm LIGHT (26 mW/cm^2, 1.56 J/cm^2)); 10^6 in data set [4] (1 μg/mL, DARK); <10^1 in data set [4] (10 μg/mL, 660 nm LIGHT (26 mW/cm^2, 1.56 J/cm^2)); 10^6 in data set [4] (10 μg/mL, DARK); 10^3 in data set [5] (1 μg/mL); <10^3 in data set [5] (5 μg/mL). Moreover, the “inactivation of virus in vitro (summary)” value in data set [3] (SnET2 and light, cell associated CMV) is “complete inactivation”; in data set [4] (SnET2 and light, cell-free HSV) it was “complete inactivation”; in data set [5] (SnET2 and light, cell associated HSV), “complete inactivation”. For the same compound, the “inactivation (complete inactivation)” value in data set [3] (drug dose 1-10 μg/mL, light dose 15.6 J/cm^2) was 2-5 log10. The “viral infectivity (viral titer), light dose response” value is recorded as 10^6 in data set [4] (0.1 μg/mL, DARK); 10^3 in data set [4] (0.1 μg/mL, Light 26 mW/cm^2, 1.56 J/cm^2); <10^3 in data set [4] (0.1 μg/mL, Light 26 mW/cm^2, 3.12 J/cm^2); <10^2 in data set [4] (0.1 μg/mL, Light 26 mW/cm^2, 6.24 J/cm^2); <10^1 in data set [4] (0.1 μg/mL, Light 26 mW/cm^2, 12.5 J/cm^2); <10^1 in data set [4] (0.1 μg/mL, Light 26 mW/cm^2, 25 J/cm^2). For the same compound, the dark toxicity entry in data set [4] (10 μg/mL to 0.1 μg/mL, no light) was “No dark toxicity was observed”. The “inactivation of the virus (partial response)” value in data set [4] (drug dose 0.1 μg/mL, light dose 1.56 J/cm^2, 660 nm) is given as 3 log10. Further, the “inactivation of the virus (complete inactivation)” value in data set [4] (drug dose 1 μg/mL, light dose 1.56 J/cm^2, 660 nm) is given as more than 5 log10; in data set [4] (drug dose 10 μg/mL, light dose 1.56 J/cm^2, 660 nm), more than 5 log10.
